According to paper PMC10649063, “Optimization of a Novel Tyrosinase Inhibitory Peptide from Atrina pectinata Mantle and Its Molecular Inhibitory Mechanism” (Foods, 2023):
“Also recorded” adds a separate entry of the source. Where two headings read alike, the source gives them in different places. Peptide text beside a SMILES is read from it.

Experiments:
Mushroom tyrosinase = target: T1, Mushroom tyrosinase (Agaricus bisporus, UniProt C7FF04); experiment: Tyrosinase inhibitory activity (L-tyrosine substrate, absorbance at 475 nm); type: biochemical
T1 construct: purchased Beijing Solarbio Biotechnology Co., Ltd
T1 sequence (C7FF04 1-392 limits assumed): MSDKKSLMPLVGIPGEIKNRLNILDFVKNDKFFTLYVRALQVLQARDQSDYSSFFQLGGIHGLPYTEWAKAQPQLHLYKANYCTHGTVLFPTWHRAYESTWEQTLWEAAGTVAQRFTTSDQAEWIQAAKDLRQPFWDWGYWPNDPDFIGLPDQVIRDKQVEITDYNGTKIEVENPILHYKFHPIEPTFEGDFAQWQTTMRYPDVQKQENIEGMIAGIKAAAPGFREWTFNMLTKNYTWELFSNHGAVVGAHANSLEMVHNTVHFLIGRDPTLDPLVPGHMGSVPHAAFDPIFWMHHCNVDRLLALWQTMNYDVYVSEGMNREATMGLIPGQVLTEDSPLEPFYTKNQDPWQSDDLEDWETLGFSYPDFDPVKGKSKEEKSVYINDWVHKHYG
Experimental: Tyrosinase inhibitory activity was determined in conformity with. With reference to the reagent addition in Table 1, we added phosphate buffer solution (PBS, pH 6.8, 0.1 mol/L), sample solutions and L-tyrosine solution (L-Tyr, 0.5 mg/mL, pH 6.8 in PBS) to each well in a 96-well plate. These were mixed well and incubated at 37 °C for 10 min. Then, 20 μL of mushroom tyrosinase solution (500 U/mL) was added, mixed and reacted at 37 °C for 15 min, and monitored at 475 nm. The tyrosinase inhibition rate (Y) was calculated as follows:(1) Y=(1−A4−A3/A2−A1)×100% where A4 is the absorbance of the reaction well of the sample, A3 is the absorbance value of the sample background well, A2 is the absorption value of the solvent reaction well and A1 is the absorbance of the solvent background well.

tyrosinase = target: T2, tyrosinase (Agaricus bisporus, UniProt C7FF04); experiment: Enzyme inhibition kinetic assay (enzyme concentration vs. rate, Lineweaver–Burk plots); type: biochemical, mushroom; conditions: for Ki: Inhibition Constant KI (mM), enzyme–inhibitor complex; for Inhibition Constant KIS: enzyme–inhibitor–substrate complex
T2 construct: purchased Beijing Solarbio Biotechnology Co., Ltd
Source text: The Lineweaver–Burk double-inverse curve was obtained by taking the reciprocal of the substrate concentration (1/[S]) as the horizontal coordinate and the reciprocal of the initial reaction rate (1/V) as the vertical coordinate to determine the type of inhibition and to calculate the Mie constant (KM) and the maximum reaction rate (Vmax).
To elucidate the mechanism of inhibition of tyrosinase by YYP, kinetic studies were used to investigate the kinetic characterization of the inhibitory response (Figure 6).
The Lineweaver–Burk double-inverse plot of the inhibitory effect of YYP on tyrosinase is illustrated in Figure 6. The 1/V were both fitted linearly to the 1/[S] (R^2 and p-values shown in Table 10) and intersected in the second quadrant of the graph. As the amount of YYP increased, the value of KM increased and the value of Vmax decreased.
The mixed-inhibitory type inhibits tyrosinase via two distinct pathways: competitively forming enzyme–inhibitor (EI) complexes and interrupting enzyme–substrate–inhibitor (ESI) complexes in a noncompetitive manner. The inhibition constant KI or KIS is the dissociation constant for the dissociation of the inhibitor (I) from the EI complexs or the enzyme–inhibitor–substrate (EIS) complexs. Both baicalein and cinnamic acid derivatives are reversible mixed-type inhibitors. […] Summarized in Table 10, based on the slope ratio and intercept ratio of the Lineweaver–Burk curve (with and without the presence of samples), the KI and KIS can be obtained.

[1] = target: Mushroom tyrosinase (Agaricus bisporus) (UniProt C7FF04)
[2] = target: Mushroom tyrosinase (Agaricus bisporus) (UniProt C7FF04); experiment: enzyme inhibition kinetics (Lineweaver-Burk); tyrosinase with L-tyrosine as substrate; KI and KIS from the slope ratio and intercept ratio of the Lineweaver-Burk lines with and without YYP; YYP 0.5 mM
[3] = target: Mushroom tyrosinase (Agaricus bisporus) (UniProt C7FF04); experiment: enzyme inhibition kinetics (Lineweaver-Burk); tyrosinase with L-tyrosine as substrate; KI and KIS from the slope ratio and intercept ratio of the Lineweaver-Burk lines with and without YYP; YYP 2 mM
[4] = target: Mushroom tyrosinase (Agaricus bisporus) (UniProt C7FF04); experiment: enzyme inhibition kinetics (Lineweaver-Burk); tyrosinase with L-tyrosine as substrate; KI and KIS from the slope ratio and intercept ratio of the Lineweaver-Burk lines with and without YYP; YYP 1 mM
[5] = synthetic peptides, read-out: Tyrosinase Inhibitory Activity (IC50)

## CC(C)[C@H](NC(=O)[C@H](CCCNC(=N)N)NC(=O)[C@@H](N)Cc1ccccc1)C(=O)N[C@@H](CCCCN)C(=O)O [FRVK, Phe-Arg-Val-Lys] (H-FRVK-OH; N-terminus and C-terminus assumed)
Mushroom tyrosinase; [5]
  IC50: 5870 ± 68 µM

## O=C(O)[C@H](Cc1ccccc1)NC(=O)[C@H](Cc1c[nH]cn1)NC(=O)[C@H](Cc1c[nH]cn1)NC(=O)[C@@H]1CCCN1 [PHHF, Pro-His-His-Phe] (H-PHHF-OH; N-terminus and C-terminus assumed)
Mushroom tyrosinase; [5]
  IC50: > 10000 µM

## CC(C)C[C@H](NC(=O)[C@H](Cc1ccc(O)cc1)NC(=O)[C@@H]1CCCN1)C(=O)N[C@@H](CCCCN)C(=O)O [PYLK, Pro-Tyr-Leu-Lys] (H-PYLK-OH; N-terminus and C-terminus assumed)
Mushroom tyrosinase; [5]
  IC50: > 10000 µM

## N[C@@H](Cc1ccc(O)cc1)C(=O)N[C@@H](Cc1ccc(O)cc1)C(=O)N1CCC[C@H]1C(=O)O [YYP, Tyr-Tyr-Pro] (H-Tyr-Tyr-Pro-OH; N-terminus and C-terminus assumed)
tyrosinase; YYP 0.5 mM
  Ki: 0.245 mM
  Maximum Reaction Speed Vmax (A475/min): 0.0212 A475/min
  Inhibition Constant KIS: 8.3833 mM
tyrosinase; YYP 1 mM
  Ki: 0.283 mM
  Maximum Reaction Speed Vmax (A475/min): 0.0206 A475/min
  Inhibition Constant KIS: 11.4139 mM
tyrosinase; YYP 2 mM
  Ki: 0.428 mM
  Maximum Reaction Speed Vmax (A475/min): 0.0192 A475/min
  Inhibition Constant KIS: 12.1276 mM
tyrosinase; Lineweaver–Burk analysis
  Type of tyrosinase inhibition: mixture of noncompetitive and competitive types; also recorded: mixed type of inhibition; also recorded: hybrid
tyrosinase; enzyme concentration vs. initial rate at different YYP concentrations
  Reversibility of tyrosinase inhibition: reversible
Mushroom tyrosinase
  IC50: 1760 ± 25 µM

## Pro-Tyr-Leu-Lys (PYLK) (peptide)
[1]
  Tyrosinase Inhibitory Activity (IC50, mM); oxidation of L-tyrosine by mushroom tyrosinase read at 475 nm: > 10 mM

## Tyr-Tyr-Pro (YYP) (peptide)
[1]
  Tyrosinase Inhibitory Activity (IC50, mM); oxidation of L-tyrosine by mushroom tyrosinase read at 475 nm: 1.76 mM
[2]
  KIS (inhibitor from the enzyme-inhibitor-substrate complex): 8.38 mM
[3]
  KIS (inhibitor from the enzyme-inhibitor-substrate complex): 12.1 mM
[4]
  KIS (inhibitor from the enzyme-inhibitor-substrate complex): 11.4 mM

B1: Pro-His-His-Phe (PHHF) (peptide)
peptide: PHHF
[1]
  Tyrosinase Inhibitory Activity (IC50, mM); oxidation of L-tyrosine by mushroom tyrosinase read at 475 nm: > 10 mM

B2: Phe-Arg-Val-Lys (FRVK) (peptide)
peptide: FRVK
[1]
  Tyrosinase Inhibitory Activity (IC50, mM); oxidation of L-tyrosine by mushroom tyrosinase read at 475 nm: 5.87 mM
